Reference: patent publication US20090075281A1, “MTBE GENES” (REGENTS OF THE UNIVERSITY OF CALIFORNIA, priority 2007, published 2009)

What was measured:
[1] = tested on: PM1; assay: MTBE degradation kinetics by PM1; assay type: cell-based, Methylibium petroleiphilum PM1
[2] = tested on: n-alkane grown GPo 1; conditions: cited from earlier work
[3] = tested on: M. petroleiphilum PM1; assay: PM1 tolerance of MTBE on tryptic soy broth media; assay type: cell-based, Methylibium petroleiphilum PM1
[4] = used to calculate solution-phase concentration; cited from earlier work
[5] = tested on: M. petroleiphilum PM1; assay: PM1 growth in mineral salts medium (MSM) on a sole carbon source; assay type: cell-based, Methylibium petroleiphilum PM1; conditions: for doubling time of PM1 cells, t1/2: cells growing on the substance as sole carbon source; for concentration up to which PM1 is capable of growth: on MSM

SMILES | apparent half saturation constant for MTBE [1] | Ks values for MTBE [2] | tolerated concentration [3] | dimensionless Henry's constant [4] | doubling time of PM1 cells, t1/2 [5] | concentration up to which PM1 is capable of growth [5]
COC(C)(C)C [MTBE, methyl tert-butyl ether] | 88 µM | 20 to 40 mM | up to 5,000 mg/L | 0.023 | 15 h | up to 1000 mg/L
CCO [ethanol] | – | – | – | – | 6.1 h | up to 7.9 g/L
